Assay results as given in ChEMBL document CHEMBL5584237, “Design, synthesis, biological evaluation, and in silico studies of novel pyridopyridine derivatives as anticancer candidates targeting FMS kinase” (Eur J Med Chem, 2024).

Tests used:
[1] = Cytotoxicity against human HS27 cells assessed as reduction in cell growth measured after 48 hrs by MTT assay; assay type: toxicity, cell-based
[2] = Cytotoxicity against human WI-38 cells assessed as reduction in cell growth measured after 48 hrs by MTT assay; assay type: toxicity, cell-based
Hep 3B2 [3] = assay: cells; details: Homo sapiens, Hep3B, 48 h
[4] = target: T1, Macrophage colony-stimulating factor 1 receptor (Homo sapiens, UniProt P07333); assay: Inhibition of FMS (unknown origin) using myelin basic protein as substrate measured after 40 mins in presence of [gamma-33P]-ATP by scintillation counting method
T1 sequence (P07333 whole entry): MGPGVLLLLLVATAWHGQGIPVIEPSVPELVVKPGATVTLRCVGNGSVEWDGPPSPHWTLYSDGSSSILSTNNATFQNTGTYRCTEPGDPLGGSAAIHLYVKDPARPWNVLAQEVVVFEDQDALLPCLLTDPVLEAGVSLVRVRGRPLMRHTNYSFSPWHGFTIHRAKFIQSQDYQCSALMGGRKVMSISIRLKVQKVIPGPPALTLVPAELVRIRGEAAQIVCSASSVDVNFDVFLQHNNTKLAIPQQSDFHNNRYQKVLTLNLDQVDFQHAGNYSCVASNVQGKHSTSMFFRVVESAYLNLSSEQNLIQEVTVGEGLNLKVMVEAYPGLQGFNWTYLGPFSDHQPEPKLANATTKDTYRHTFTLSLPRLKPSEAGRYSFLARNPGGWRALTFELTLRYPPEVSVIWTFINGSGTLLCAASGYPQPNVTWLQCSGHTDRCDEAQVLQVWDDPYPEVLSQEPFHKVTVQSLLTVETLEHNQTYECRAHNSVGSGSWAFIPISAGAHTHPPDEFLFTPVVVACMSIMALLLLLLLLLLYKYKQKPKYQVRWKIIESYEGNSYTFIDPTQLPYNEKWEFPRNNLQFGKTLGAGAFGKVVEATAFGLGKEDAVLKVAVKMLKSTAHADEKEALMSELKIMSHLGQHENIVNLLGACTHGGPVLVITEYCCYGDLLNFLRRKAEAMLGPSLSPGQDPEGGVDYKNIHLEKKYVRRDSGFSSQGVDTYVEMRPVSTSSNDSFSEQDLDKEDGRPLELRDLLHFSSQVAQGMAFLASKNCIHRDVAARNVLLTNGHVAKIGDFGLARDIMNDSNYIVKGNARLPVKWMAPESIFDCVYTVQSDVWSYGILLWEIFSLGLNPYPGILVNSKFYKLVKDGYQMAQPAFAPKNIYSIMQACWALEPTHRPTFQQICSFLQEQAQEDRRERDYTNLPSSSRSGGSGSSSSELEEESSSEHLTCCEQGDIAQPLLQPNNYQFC

HepG2 = assay: cells; details: Homo sapiens, HepG2, 48 h
Description: Antiproliferative activity against human HepG2 cells assessed as cell growth inhibition measured after 48 hrs by MTT assay

Hep 3B2 [5] = assay: Antiproliferative activity against human Hep3B cells assessed as cell growth inhibition at 10 uM measured after 48 hrs by MTT assay relative to control; assay type: functional; details: read-out: GI
Hs-578T = assay: Antiproliferative activity against human Hs-578T cells assessed as cell growth inhibition; assay type: functional
HCT-116 = assay: Antiproliferative activity against human HCT-116 cells assessed as cell growth inhibition; assay type: functional
NCI-H460 = assay: Antiproliferative activity against human NCI-H460 cells assessed as cell growth inhibition; assay type: functional
PC-3 = assay: Antiproliferative activity against human PC-3 cells assessed as cell growth inhibition; assay type: functional
LOX IMVI = assay: Antiproliferative activity against human LOX IMVI cells assessed as cell growth inhibition; assay type: functional
MDA-MB-435 = assay: Antiproliferative activity against human MDA-MB-435 cells assessed as cell growth inhibition; assay type: functional
Malme-3M = assay: Antiproliferative activity against human Malme-3M cells assessed as cell growth inhibition; assay type: functional
786-0 = assay: Antiproliferative activity against human 786-0 cells assessed as cell growth inhibition; assay type: functional
SN12C = assay: Antiproliferative activity against human SN12C cells assessed as cell growth inhibition; assay type: functional
CAKI-1 = assay: Antiproliferative activity against human CAKI-1 cells assessed as cell growth inhibition; assay type: functional
M14 = assay: Antiproliferative activity against human M14 cells assessed as cell growth inhibition; assay type: functional
OVCAR-3 = assay: Antiproliferative activity against human OVCAR-3 cells assessed as cell growth inhibition; assay type: functional
SF-295 = assay: Antiproliferative activity against human SF-295 cells assessed as cell growth inhibition; assay type: functional
DU-145 = assay: Antiproliferative activity against human DU-145 cells assessed as cell growth inhibition; assay type: functional
A549 = assay: Antiproliferative activity against human A549 cells assessed as cell growth inhibition; assay type: functional
BMDM = assay: Inhibition of CSF-1-induced C57BL6 mouse BMDM cell growth preincubated for 1 hr followed by CSF-1 addition and measured after 5 hrs by alamar blue assay
SF-539 = assay: Antiproliferative activity against human SF-539 cells assessed as cell growth inhibition; assay type: functional
HCT-15 = assay: Antiproliferative activity against human HCT-15 cells assessed as cell growth inhibition; assay type: functional
SW-620 = assay: Antiproliferative activity against human SW-620 cells assessed as cell growth inhibition; assay type: functional
K562 = assay: Antiproliferative activity against human K562 cells assessed as cell growth inhibition; assay type: functional
RXF 393 = assay: Antiproliferative activity against human RXF 393 cells assessed as cell growth inhibition; assay type: functional
SK-MEL-28 = assay: Antiproliferative activity against human SK-MEL-28 cells assessed as cell growth inhibition; assay type: functional
MDA-MB-231 = assay: Antiproliferative activity against human MDA-MB-231 cells assessed as cell growth inhibition; assay type: functional
SNB-75 = assay: Antiproliferative activity against human SNB-75 cells assessed as cell growth inhibition; assay type: functional
COLO 205 = assay: Antiproliferative activity against human COLO 205 cells assessed as cell growth inhibition; assay type: functional
MOLT-4 = assay: Antiproliferative activity against human MOLT-4 cells assessed as cell growth inhibition; assay type: functional
[6] = target: Voltage-gated inwardly rectifying potassium channel KCNH2 (Homo sapiens, UniProt Q12809); assay: Inhibition of fluorescence tracer red binding to human ERG measured after 3 hrs by fluorescence polarization assay
Chain of Voltage-gated inwardly rectifying potassium channel KCNH2 (Q12809 whole entry): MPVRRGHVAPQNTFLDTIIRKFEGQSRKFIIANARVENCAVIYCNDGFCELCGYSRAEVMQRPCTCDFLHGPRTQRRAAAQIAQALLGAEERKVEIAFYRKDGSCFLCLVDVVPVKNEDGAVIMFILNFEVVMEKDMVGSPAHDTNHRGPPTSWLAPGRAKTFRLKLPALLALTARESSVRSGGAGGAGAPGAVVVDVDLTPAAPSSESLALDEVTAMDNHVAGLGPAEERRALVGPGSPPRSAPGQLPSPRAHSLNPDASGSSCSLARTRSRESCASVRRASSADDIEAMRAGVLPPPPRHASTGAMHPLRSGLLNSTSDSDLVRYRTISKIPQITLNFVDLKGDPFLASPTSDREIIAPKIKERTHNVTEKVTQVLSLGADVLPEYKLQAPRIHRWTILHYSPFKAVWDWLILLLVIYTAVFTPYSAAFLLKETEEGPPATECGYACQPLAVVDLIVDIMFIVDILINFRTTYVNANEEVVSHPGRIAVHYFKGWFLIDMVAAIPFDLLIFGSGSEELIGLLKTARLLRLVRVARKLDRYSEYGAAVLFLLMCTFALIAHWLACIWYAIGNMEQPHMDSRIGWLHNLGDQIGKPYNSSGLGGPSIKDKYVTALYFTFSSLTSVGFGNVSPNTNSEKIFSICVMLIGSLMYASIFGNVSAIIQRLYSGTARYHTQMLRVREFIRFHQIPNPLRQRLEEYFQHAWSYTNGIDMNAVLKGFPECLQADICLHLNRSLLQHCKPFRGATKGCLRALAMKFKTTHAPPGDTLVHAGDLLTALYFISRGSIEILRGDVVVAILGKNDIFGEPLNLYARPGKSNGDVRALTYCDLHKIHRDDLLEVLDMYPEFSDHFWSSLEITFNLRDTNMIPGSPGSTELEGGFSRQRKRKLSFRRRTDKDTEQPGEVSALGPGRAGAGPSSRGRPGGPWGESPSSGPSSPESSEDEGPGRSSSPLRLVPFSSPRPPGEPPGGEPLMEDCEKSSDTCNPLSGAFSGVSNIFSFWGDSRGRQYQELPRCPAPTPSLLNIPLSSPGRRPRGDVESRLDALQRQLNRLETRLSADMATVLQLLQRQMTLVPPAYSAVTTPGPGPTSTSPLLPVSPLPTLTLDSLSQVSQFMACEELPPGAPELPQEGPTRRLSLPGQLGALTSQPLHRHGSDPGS

MDA-MB-468 = assay: Antiproliferative activity against human MDA-MB-468 cells assessed as cell growth inhibition; assay type: functional
OVCAR-4 = assay: Antiproliferative activity against human OVCAR-4 cells assessed as cell growth inhibition; assay type: functional
CCRF-CEM = assay: Antiproliferative activity against human CCRF-CEM cells assessed as cell growth inhibition; assay type: functional
SR = assay: Antiproliferative activity against human SR cells assessed as cell growth inhibition; assay type: functional
MCF7 = assay: Antiproliferative activity against human MCF7 cells assessed as cell growth inhibition; assay type: functional
[7] = target: T1, Macrophage colony-stimulating factor 1 receptor; assay: Inhibition of NanoLuc-fused FMS (unknown origin) transfected in HEK293 cells by NanoBRET assay; assay type: cell-based
HT-29 = assay: Antiproliferative activity against human HT-29 cells assessed as cell growth inhibition; assay type: functional

## CNC(=O)c1cc(-c2ccc(NC(=O)Nc3ccc(N4CCOCC4)c(C(F)(F)F)c3)cc2)nc2cccnc12
[1]
  IC50 at 48 h: 11600 nM
[2]
  IC50 at 48 h: > 20000 nM
Hep 3B2 [3]
  IC50: 1890 nM
[4]; read-out: IC50
  IC50: 134 nM
HepG2
  IC50: 1270 nM

## CC(C)NC(=O)c1cc(-c2ccc(NC(=O)Nc3ccc(F)c(C(F)(F)F)c3)cc2)nc2cccnc12
Hep 3B2 [5]
  inhibition of growth at 10 µM: 84.8%

## CC(C)NC(=O)c1cc(-c2ccc(NC(=O)Nc3ccc(N4CCOCC4)c(C(F)(F)F)c3)cc2)nc2cccnc12
[4]; read-out: IC50
  IC50: 901 nM

## CNC(=O)c1cc(-c2ccc(NC(=O)Nc3ccc(N4CCNCC4)c(C(F)(F)F)c3)cc2)nc2cccnc12
[4]; read-out: IC50
  IC50: 743 nM

## CC(C)NC(=O)c1cc(-c2ccc(NC(=O)Nc3ccc(N4CCN(C)CC4)c(C(F)(F)F)c3)cc2)nc2cccnc12
[1]
  IC50 at 48 h: 8000 nM
[2]
  IC50 at 48 h: 18300 nM
Hep 3B2 [3]
  IC50: 1760 nM
[4]; read-out: IC50
  IC50: 797 nM
[4]; read-out: pIC50 (converted)
  IC50: 813 nM
HepG2
  IC50: 800 nM

## C=CC(=O)N1CCN(c2ccc(NC(=O)Nc3ccc(-c4cc(C(=O)NC)c5ncccc5n4)cc3)cc2C(F)(F)F)CC1
[4]; read-out: IC50
  IC50: 196 nM

## CC(C)NC(=O)c1cc(-c2ccc(NC(=O)Nc3ccc(N4CCNCC4)c(C(F)(F)F)c3)cc2)nc2cccnc12
[1]
  IC50 at 48 h: 9100 nM
[2]
  IC50 at 48 h: 18600 nM
Hep 3B2 [3]
  IC50: 850 nM
[4]; read-out: IC50
  IC50: 852 nM
HepG2
  IC50: 920 nM

## CCN1CCN(c2ccc(NC(=O)Nc3ccc(-c4cc(C(=O)NC)c5ncccc5n4)cc3)cc2C(F)(F)F)CC1
Hs-578T
  TGI: 6880 nM
[1]
  IC50 at 48 h: 8800 nM
HCT-116
  TGI: 4830 nM
[2]
  IC50 at 48 h: 16700 nM
NCI-H460
  GI50: 660 nM
  TGI: 2930 nM
PC-3
  TGI: 6030 nM
LOX IMVI
  GI50: 670 nM
  TGI: 2660 nM
MDA-MB-435
  GI50: 270 nM
  TGI: 560 nM
Malme-3M
  GI50: 290 nM
  TGI: 530 nM
786-0
  GI50: 300 nM
  TGI: 580 nM
SN12C
  TGI: 5300 nM
CAKI-1
  TGI: 5600 nM
M14
  GI50: 400 nM
  TGI: 1050 nM
OVCAR-3
  TGI: 5060 nM
SF-295
  TGI: 4470 nM
DU-145
  TGI: 4900 nM
A549
  GI50: 470 nM
  TGI: 13000 nM
BMDM
  IC50: 167 nM
SF-539
  GI50: 2300 nM
  TGI: 4570 nM
HCT-15
  GI50: 330 nM
  TGI: 700 nM
SW-620
  GI50: 310 nM
  TGI: 620 nM
K562
  GI50: 660 nM
  TGI: 18000 nM
RXF 393
  GI50: 500 nM
  TGI: 1660 nM
SK-MEL-28
  GI50: 320 nM
  TGI: 580 nM
MDA-MB-231
  TGI: 5250 nM
SNB-75
  GI50: 840 nM
  TGI: 3820 nM
COLO 205
  TGI: 14200 nM
MOLT-4
  GI50: 690 nM
  TGI: 18000 nM
[6]
  IC50: 83400 nM
MDA-MB-468
  TGI: 5030 nM
OVCAR-4
  TGI: 5630 nM
CCRF-CEM
  GI50: 460 nM
  TGI: 1270 nM
SR
  GI50: 670 nM
  TGI: 18000 nM
MCF7
  GI50: 290 nM
  TGI: 610 nM
[7]
  IC50: 1350 nM
HT-29
  GI50: 530 nM
  TGI: 2110 nM

## C=CC(=O)N1CCN(c2ccc(NC(=O)Nc3ccc(-c4cc(C(=O)NC(C)C)c5ncccc5n4)cc3)cc2C(F)(F)F)CC1
[1]
  IC50 at 48 h: 8100 nM
[2]
  IC50 at 48 h: 15800 nM
Hep 3B2 [3]
  IC50: 810 nM
[4]; read-out: IC50
  IC50: 788 nM
HepG2
  IC50: 870 nM

## CNC(=O)c1cc(Oc2ccc(NC(=O)Nc3ccc(Cl)c(C(F)(F)F)c3)cc2)ccn1 [SORAFENIB]
[1]
  IC50 at 48 h: 8300 nM
NCI-H460
  GI50: 2510 nM
PC-3
  GI50: 2000 nM
Malme-3M
  GI50: 2000 nM
786-0
  GI50: 3160 nM
SN12C
  GI50: 2510 nM
CAKI-1
  GI50: 3160 nM
M14
  GI50: 2000 nM
OVCAR-3
  GI50: 3160 nM
DU-145
  GI50: 3160 nM
A549
  GI50: 3160 nM
Hep 3B2 [5]
  inhibition of growth at 10 µM: 75%
HCT-15
  GI50: 2510 nM
SW-620
  GI50: 2510 nM
K562
  GI50: 3160 nM
RXF 393
  GI50: 3160 nM
SK-MEL-28
  GI50: 2510 nM
MDA-MB-231
  GI50: 1260 nM
SNB-75
  GI50: 3160 nM
COLO 205
  GI50: 2000 nM
MOLT-4
  GI50: 3160 nM
  TGI: 100000 nM
OVCAR-4
  GI50: 3160 nM
CCRF-CEM
  GI50: 2000 nM
SR
  GI50: 3160 nM
MCF7
  GI50: 2510 nM
  TGI: 7940 nM
HT-29
  GI50: 2000 nM

## CNC(=O)c1cc(-c2ccc(NC(=O)Nc3ccc(N4CCN(C)CC4)c(C(F)(F)F)c3)cc2)nc2cccnc12
[6]
  IC50: 95900 nM
[7]
  IC50: 563 nM
